Measurements reported in US20030186943A1, “Substituted gamma-phenyl-delta-lactams and uses related thereto” (Inflazyme Pharmaceuticals Ltd., priority 1998, published 2003).
Like-named read-outs stand apart in the source and are kept apart here.

Legend:
[1] = tested on: TNF-α production in concanavalin-A stimulated primary human CD4+ T-lymphocytes; assay: TNF-α production in Con-A stimulated human CD4+ T-cells (ELISA); type: cell-based; conditions: T-lymphocyte, X marks this range
Procedure: Activated T-lymphocytes are known to produce TNF-α and may constitute a significant source of this important inflammatory mediator in localized regions of inflammation such as the rheumatoid synovium or psoriatic lesions. Supernatants from cona-stimulated primary human CD4+ T-cells that had been incubated in the presence or absence of a test compound were analyzed for TNF-α using an ELISA system. (Pharingen; recommended anti-TNF antibody set 18631-D and 18642-D). Substantial quantities of TNF-α were induced in vehicle treated T-cells stimulated with conA. […] This may be due to the differing sensitivity of monocyte/macrophages versus T-lymphocytes to elevations in intracellular cAMP with respect to regulatory pathways impacting TNF-α production.
(§1) Approximately 60 cc of whole human blood was collected into ACD anti-coagulant vacutainer tubes. 15 mL Ficoll Paque 1077 was aliquoted into 6 sterile 50 mL conical tubes. 10 mL of blood was slowly layered on top of the Ficoll Paque by holding the tube upright and resting the pipette tip at the inside edge of the tube and allowing the blood to slowly run down the side of the tube. Tubes were spun at 1700 rpm for 30 minutes at room temperature. The plasma layer above the leukocyte band was aspirated off and a pasteur pipette was used to lift off the leukocyte band and transfer it to a sterile 50 mL conical tube. Cells from each leukocyte gradiant tube were transferred to a separate 50 mL conical tube. Sterile PBS pH 7.4 was added to each 50 mL conical tube containing cells from leukocyte band to a volume of 50 mL. Tubes were spun at 1100 rpm for 10 minutes. Supernatant was aspirated off and the cells were resuspended in 50 mL PBS pH 7.4. Tubes were re-centrifuged at 1100 rpm for 10 minutes. Supernatant was aspirated off and the cells were resuspended in appropriate medium at a density of 5×10^7 cells/mL or 2×10^6 cells/mL.
(§2) CD 4+T-cell Preparation: Cells from Leukocyte preparation were resuspended in sterile PBS pH 7.4 supplemented with 2-6% Fetal Bovine Serum (FBS) at a density of 5×10^7 cells/mL. Cells were then ready for isolation.
(§3) 100 μL of antibody cocktail (Stem Cell Technologies, Catalogue No. 14062) was added for each mL of cells and mixed well. Cells+Ab cocktail was incubated on ice for 30 minutes. After 30 minute incubation, 60 μL of magnetic colloid was added for each mL of cells, and mixed well. Cells+Ab cocktail+magnetic colloid were incubated on ice for 30 minutes. After a final 30 minute incubation cells were ready for magnetic cell separation.
(§4) Sample was loaded into the top of a column. The stopcock was turned to allow the flow of media down through the column, and the media was collected into a collection tube. PBS supplemented with 2-6% FBS was added to the column until three column volumes had been collected (not including the volume of the start sample). Cells were washed, counted, and resuspended in RPMI 1640 with 10% FBS+2 mM L-glutamine at a density of 1×10^6 cells/mL.
(§5) CD4+ T-cells were isolated as described above. Cells were suspended in RPMI 1640 media (Stem Cell Technologies Inc.; Catalogue No. 36750) with 10% FBS+2 mM L-glutamine at a density of 1×10^6 cells/mL. Cells were maintained on ice as test compounds were prepared. Test compounds were prepared in a sterile 96-well assay plate at 50×the final desired test concentration, all wells contained an equal amount of dimethylsulfoxide vehicle. 500 μL of CD4^+ T-cells were added to each well of 24-well assay plate. 10 μL of each test compound working solution was added to the appropriate wells; two wells were left as stimulated and non-stimulated controls. 10 μL of concanavalin A (50×the final concentration) at 10 μg/mL was added to each well with the exception of the non-stimulated control wells. Cells were incubated at 37° C. for 48 hours. Conditioned media is then assessed by ELISA for the quantity of IL-2, […], TNFα and IL-10 present.

[2] = tested on: IL-2 production in concanavalin A stimulated primary human CD4+ T-cells; assay: IL-2 production (Th1 profile) in concanavalin A stimulated primary human CD4+ T-cells; type: cell-based; conditions: for IC50: Homo sapiens, T-cell, 10 μg/mL Concanavalin A, 48 hours, X marks this range; for Th1 versus Th2 cytokine profile: conA stimulated CD4+ selected cells
Excerpt: The assay on the primary human T-cells involves their activation by concanavalin A (conA); (Sigma, Catalogue No. C 5275), followed by ELISA detection for cytokines for either profile. In the case of Th1-profiles, IL-2 and INF-γ are used as benchmarks while IL-10 is the indicator for a Th2-profile. Biologically, these indicators are useful in that IL-2 is the major T-cell mitogen while IL-10 represents a powerful yet selective immunosuppressive agent.
as §1, §2, §3, §4, §5
Tables 5A, 5B and 5C represent a synopsis of data across individuals with respects to the potency of compounds of the invention in their ability to inhibit cytokines that are likely to promote or depress a Th1 or Th2 response. […]

[3] = tested on: High Affinity Rolipram Binding Site of PDE4 in Mouse Brain; assay: Displacement of [3H]-rolipram from its high affinity binding site (HARBS); conditions: for PDE4:HARBS: ratio of IC50 for PDE4 catalytic activity to concentration displacing 50% of rolipram from HARBS
[4] = read-out: TNF-alpha IC50 RANGE (μM) 2.0-20
[5] = read-out: IL-2 IC50 RANGE (μM) 0.02-0.2
[6] = read-out: IL-2 IC50 RANGE (μM) 0.2-2.0
[7] = read-out: TNF-alpha IC50 RANGE (μM) <2

SMILES | IC50 [1, 4] [µM] | IC50 [2, 5] [µM] | Th1 versus Th2 cytokine profile [2] | PDE4:HARBS [3] | IC50 [2, 6] [µM] | ratio of IC50's for PDE4catalytic to PDE4HARBS [3] | IC50 [1, 7] [µM] | IC50 ([2]; read-out: IL-2 IC50 RANGE (μM) 2.0-20) [µM]
COc1cc(C[C@@H]2C[C@@H](c3ccc(OC)c(OC)c3)COC2=O)ccc1O [Compound 30] | 2 to 20 | 0.02 to 0.2 | selective inhibition of a Th1 profile | <1 |  |  |  | 
COc1ccc([C@@H]2CCC(=O)OC2)cc1OC1CCCC1 [Compound 41] |  |  |  | >1 |  |  |  | 
COc1cc(CC2C[C@@H](c3ccc(OC)c(OC4CCCC4)c3)COC2=O)ccc1O (stereo partly drawn) [Compound 43] | 2 to 20 |  |  | >1 | 0.2 to 2 | 1.04 |  | 
COc1ccc([C@H]2CNC(=O)C(Cc3ccc(OCc4ccccc4)c(OC)c3)C2)cc1OC (stereo partly drawn) [Compound 54] |  | 0.02 to 0.2 | selective inhibition of a Th1 profile | >1 |  |  | < 2 | 
COc1cc(CC2C[C@@H](c3ccc(OC)c(OC)c3)CNC2=O)ccc1O (stereo partly drawn) [Compound 55] | 2 to 20 |  |  | >1 | 0.2 to 2 |  |  | 
COc1cc(CC2C[C@@H](c3ccc(OC)c(OC4CCCC4)c3)CNC2=O)ccc1O (stereo partly drawn) [Compound 62] |  |  |  | >1 | 0.2 to 2 |  | < 2 | 
COc1ccc(C2CNC(=O)C2)cc1OC1CCCC1 (stereo not drawn) [Rolipram, reference compound] |  |  |  |  |  |  | < 2 | 2 to 20
